Reference: patent publication US6710048B2, “Pyrazine derivatives as modulators of tyrosine kinases” (Ortho-McNeil Pharmaceutical, Inc., priority 2000, dated 2004)
pIC50: −log10 of the molar value.

Experiments:
Protein Kinase A = biological target: T1, Protein Kinase A (Bos taurus, UniProt P00517); assay: Protein Kinase A selectivity assay; assay type: biochemical, bovine; settings: Table 4 kinase selectivity; read-out: IC50, Assay 5 Protein Kinase A
T1 construct: purified from bovine heart; purchased Upstate Biotech 14-114; host or cells: bovine heart
Procedure: (§1) Assays to test compound inhibition of other kinases were preformed using methods that measure the amount of phosphorylation of a biotinylated peptide substrate. Biotinylated peptide substrates were selected from the literature as appropriate for the enzyme being evaluated. […] Assay conditions vary slightly for each protein kinase, for example, insulin receptor kinase requires 10 mM MnCl2 for activity and Calmodulin-dependent protein kinase requires calmodulin and 2 mM CaCl2. The reaction mixture was dispensed into the wells of a streptavidin coated Flashplate and 1 μl drug stock in 100% DMSO was added to a 100 μl reaction volume resulting in a final concentration of 1% DMSO in the reaction. Enzyme was diluted in 50 mM Tris-HCl pH=8.0, 0.1% BSA and added to each well. The reaction was incubated for one hour at 30° C. in the presence of compound. After one hour the reaction mix was aspirated from the plate and the plate was washed with PBS containing 100 mM EDTA. The plate was read on a scintillation counter to determine ^33P-γ-ATP incorporated into the immobilized peptide. Test compounds were assayed in duplicate at 8 concentrations [100 tM, 10 μM, 1 μM, 100 nM, 10 nM, 1 nM, 100 μM, 10 μM]. A maximum and minimum signal for the assay was determined on each plate. The IC50 was calculated from the dose response curve of the percent inhibition of the maximum signal in the assay according to the formula [max signal−background/test compound signal−background (100)=% inhibition] by graphing the percent inhibition against the log concentration of test compound. Known inhibitor compounds appropriate for the kinase being assayed were also included on each plate.
(§2) VEGF-R (vascular endothelial growth factor receptor-2) is a fusion protein containing a polyhistidine tag at the N-terminus followed by amino acids 786-1343 of the rat VEGF-R2 kinase domain (GenBank Accession #U93306). CDK1 (cyclin dependent kinase 1) is isolated from insect cells expressing both the human CDK1 catalytic subunit and its positive regulatory subunit cyclin B (New England Biolabs, Beverly, Mass., Cat. #6020). CDK4 (cyclin dependent kinase 4) contains amino acids 769 to 921 of the mouse […] protein found in the GST-retinoblastoma protein construct (Santa Cruz Biotechnology, Santa Cruz, Calif.; Cat. #SC-4112). Insulin Receptor Kinase consists of residues 941-1313 of the cytoplasmic domain of the beta-subunit of the human insulin receptor (BIOMOL, Plymouth Meeting, Pa., Cat. #SE-195). Protein Kinase A is the catalytic subunit of cAMP dependent protein kinase-A purified from bovine heart (Upstate Biotech, Lake Placid, N.Y., Cat#14-114). PKC (protein kinase-C) is the gamma or beta isoform of the human protein produced in insect cells (BIOMOL, Plymouth Meeting, Pa., Cat. #SE-143). Casein Kinase 1 is a truncation at amino acid 318 of the C-terminal portion of the rat CK1 delta isoform produced in E.coli (New England Biolabs, Beverly, Mass., Cat. #6030). Casein Kinase 2 includes the alpha and beta subunits of the human CK2 protein produced in E.coli (New England Biolabs, Beverly, Mass., Cat. #6010). Calmodulin Kinase (calmodulin-dependent protein kinase 2) is a truncated version of the alpha subunit of the rat protein produced in insect cells (New England Biolabs, Beverly, Mass., Cat. #6060). Glycogen Synthase Kinase-3 is the beta isoform of the rabbit enzyme produced in E. coli (New England Biolabs, Beverly, Mass., Cat. #6040). MAP Kinase is the rat ERK-2 isoform containing a polyhistidine tag at the N-terminus produced in E. coli. and activated by phosphorylation with MEK1 prior to purification (BIOMOL, Plymouth Meeting, Pa., Cat. #SE-137). EGFR (epidermal growth factor receptor) is purified from human A431 cell membranes (Sigma, St. Louis, Mo., Cat.# E3641). PDGF-R (platelet derived growth factor receptor) is a fusion protein containing a polyhistidine tag at the N-terminus followed by nucleotides 1874-3507 of the human PDGF-R beta subunit kinase domain (Accession #M21616). […]

PKC-β2 = biological target: T2, PKC-β2 (Homo sapiens, UniProt P05771); assay: PKC-β2 kinase selectivity assay; assay type: biochemical; settings: Table 4 kinase selectivity; read-out: IC50, Assay 7 PKC-β2
T2 construct: purchased BIOMOL SE-143; host or cells: insect cells
Procedure: as §1, §2

Casein Kinase 1 = biological target: T3, Casein Kinase 1 (Rattus norvegicus, UniProt Q06486); assay: Casein Kinase 1 selectivity assay; assay type: biochemical; settings: Table 4 kinase selectivity; read-out: IC50, Assay 8 Casein Kinase 1
T3 construct: a truncation at amino acid 318 of the C-terminal portion of the rat CK1 delta isoform produced in E.coli; purchased New England Biolabs 6030; host or cells: E. coli
T3 sequence (Q06486 1-317 limits assumed): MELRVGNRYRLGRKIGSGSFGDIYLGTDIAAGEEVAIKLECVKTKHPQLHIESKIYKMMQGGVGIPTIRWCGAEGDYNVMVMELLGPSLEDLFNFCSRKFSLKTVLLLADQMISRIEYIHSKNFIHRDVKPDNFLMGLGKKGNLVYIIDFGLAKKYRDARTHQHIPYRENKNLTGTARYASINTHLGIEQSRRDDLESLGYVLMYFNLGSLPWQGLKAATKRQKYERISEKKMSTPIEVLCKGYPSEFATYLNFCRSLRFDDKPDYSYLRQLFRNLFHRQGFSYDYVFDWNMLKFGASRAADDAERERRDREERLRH
Procedure: as §1, §2

Casein Kinase 2 = biological target: T4, Casein Kinase 2 (Homo sapiens, UniProt P68400); assay: Casein Kinase 2 selectivity assay; assay type: biochemical; settings: Table 4 kinase selectivity; 10 = approximate value; read-out: IC50, Assay 9 Casein Kinase 2
T4 construct: purchased New England Biolabs 6010; host or cells: E. coli
Procedure: as §1, §2

[1] = biological target: T5, Calmodulin Kinase (calmodulin-dependent protein kinase 2) (Rattus norvegicus, UniProt P11275); assay: Calmodulin Kinase selectivity assay; assay type: biochemical; settings: Table 4 kinase selectivity; read-out: IC50, Assay 10 Calmodulin Kinase
T5 construct: a truncated version of the alpha subunit of the rat protein; purchased New England Biolabs 6060; host or cells: insect cells

[2] = biological target: T6, Glycogen Synthase Kinase-3 (beta isoform) (Oryctolagus cuniculus, UniProt G1T8E2); assay: GSK-3 kinase selectivity assay; assay type: biochemical, rabbit; settings: Table 4 kinase selectivity; read-out: IC50, Assay 11 GSK-3
T6 construct: purchased New England Biolabs 6040; host or cells: E. coli
Procedure: as §1, §2

Insulin Receptor Kinase = biological target: T7, Insulin Receptor Kinase (Homo sapiens, UniProt P06213); assay: Insulin Kinase selectivity assay; assay type: biochemical; settings: Table 4 kinase selectivity; read-out: IC50, Assay 13 Insulin Kinase
T7 construct: consists of residues 941-1313 of the cytoplasmic domain of the beta-subunit of the human insulin receptor; purchased BIOMOL SE-195
Procedure: as §1, §2

T5 sequence (P11275 1-325): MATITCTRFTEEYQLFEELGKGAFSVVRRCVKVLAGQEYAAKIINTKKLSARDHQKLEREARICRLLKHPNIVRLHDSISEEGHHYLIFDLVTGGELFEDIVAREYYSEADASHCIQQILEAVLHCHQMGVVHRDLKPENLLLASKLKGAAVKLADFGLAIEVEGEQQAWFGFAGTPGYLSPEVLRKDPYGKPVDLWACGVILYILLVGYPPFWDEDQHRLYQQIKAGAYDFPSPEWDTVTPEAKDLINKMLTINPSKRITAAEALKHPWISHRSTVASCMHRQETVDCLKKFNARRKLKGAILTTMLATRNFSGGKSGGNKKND
T7 sequence (P06213 980-1352): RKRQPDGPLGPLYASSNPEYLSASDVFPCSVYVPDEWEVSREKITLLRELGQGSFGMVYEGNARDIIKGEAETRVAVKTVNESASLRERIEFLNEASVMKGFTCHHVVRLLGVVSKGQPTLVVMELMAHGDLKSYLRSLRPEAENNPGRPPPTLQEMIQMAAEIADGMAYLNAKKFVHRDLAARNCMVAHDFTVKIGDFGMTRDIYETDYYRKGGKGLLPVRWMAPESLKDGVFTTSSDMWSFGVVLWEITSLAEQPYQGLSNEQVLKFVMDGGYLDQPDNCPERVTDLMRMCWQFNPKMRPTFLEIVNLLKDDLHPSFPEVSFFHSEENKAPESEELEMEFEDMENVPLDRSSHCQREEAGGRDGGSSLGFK
T6 sequence (G1T8E2 1-432): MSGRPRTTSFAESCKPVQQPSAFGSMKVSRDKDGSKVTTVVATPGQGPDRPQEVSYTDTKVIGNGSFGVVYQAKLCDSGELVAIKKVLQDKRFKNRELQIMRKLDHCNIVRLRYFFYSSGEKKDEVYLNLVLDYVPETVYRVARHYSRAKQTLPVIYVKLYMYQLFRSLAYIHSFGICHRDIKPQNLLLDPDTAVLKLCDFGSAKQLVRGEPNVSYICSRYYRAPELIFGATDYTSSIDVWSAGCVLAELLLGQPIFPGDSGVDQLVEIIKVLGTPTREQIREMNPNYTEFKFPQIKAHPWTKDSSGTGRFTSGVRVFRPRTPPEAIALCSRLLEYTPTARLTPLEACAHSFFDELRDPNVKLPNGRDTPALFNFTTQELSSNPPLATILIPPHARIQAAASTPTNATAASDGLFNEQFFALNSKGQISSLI
T4 sequence (P68400 whole entry): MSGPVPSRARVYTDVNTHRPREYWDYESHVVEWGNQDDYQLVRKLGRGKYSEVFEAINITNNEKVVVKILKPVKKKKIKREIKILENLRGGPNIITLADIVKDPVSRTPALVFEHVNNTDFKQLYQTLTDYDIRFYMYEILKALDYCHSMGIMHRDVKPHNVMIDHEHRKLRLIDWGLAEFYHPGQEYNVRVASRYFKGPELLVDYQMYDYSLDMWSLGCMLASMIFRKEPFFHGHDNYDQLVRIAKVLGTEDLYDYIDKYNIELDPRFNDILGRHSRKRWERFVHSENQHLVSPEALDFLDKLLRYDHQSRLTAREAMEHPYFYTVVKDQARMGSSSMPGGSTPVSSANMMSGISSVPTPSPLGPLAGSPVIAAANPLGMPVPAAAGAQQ
T4 sequence (P67870 whole entry partner): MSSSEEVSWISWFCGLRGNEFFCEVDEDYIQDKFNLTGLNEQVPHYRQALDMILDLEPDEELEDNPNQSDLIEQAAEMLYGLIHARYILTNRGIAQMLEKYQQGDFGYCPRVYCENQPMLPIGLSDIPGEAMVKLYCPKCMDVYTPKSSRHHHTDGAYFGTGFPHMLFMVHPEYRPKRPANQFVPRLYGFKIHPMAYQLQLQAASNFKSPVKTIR
T2 sequence (P05771 1-673 isoform P05771-2): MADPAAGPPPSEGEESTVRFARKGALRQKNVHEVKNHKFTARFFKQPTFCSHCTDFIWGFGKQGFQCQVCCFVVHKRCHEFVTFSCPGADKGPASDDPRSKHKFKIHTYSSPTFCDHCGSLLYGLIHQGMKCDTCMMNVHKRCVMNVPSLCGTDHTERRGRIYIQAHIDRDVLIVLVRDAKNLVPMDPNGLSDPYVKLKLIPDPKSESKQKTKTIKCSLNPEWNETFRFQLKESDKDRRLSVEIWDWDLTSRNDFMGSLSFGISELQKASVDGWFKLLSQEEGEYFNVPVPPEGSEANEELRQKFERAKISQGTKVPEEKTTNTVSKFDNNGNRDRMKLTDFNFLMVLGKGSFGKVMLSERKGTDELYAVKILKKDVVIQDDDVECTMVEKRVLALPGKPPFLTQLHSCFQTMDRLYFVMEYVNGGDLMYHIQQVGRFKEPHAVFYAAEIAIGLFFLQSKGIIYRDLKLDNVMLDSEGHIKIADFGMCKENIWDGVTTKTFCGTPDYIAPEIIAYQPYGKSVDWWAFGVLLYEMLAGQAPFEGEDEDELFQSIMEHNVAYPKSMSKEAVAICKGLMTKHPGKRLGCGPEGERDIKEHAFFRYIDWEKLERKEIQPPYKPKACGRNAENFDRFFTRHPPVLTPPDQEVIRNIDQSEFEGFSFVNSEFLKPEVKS

SMILES	pIC50 (Protein Kinase A)	pIC50 (PKC-β2)	pIC50 (Casein Kinase 1)	pIC50 (Casein Kinase 2)	pIC50 [1]	pIC50 [2]	pIC50 (Insulin Receptor Kinase)
O=C(NCCCO)c1cncc(-c2cncc(Nc3cccc(Cl)c3)n2)c1 [Cmd 39]	< 4.00	< 4.00	< 4.00	~5.00	< 4.00	6.06	5.74
Clc1cccc(Nc2cncc(-c3cncc(NCCCn4cncn4)c3)n2)c1 [Cmd 76]	< 4.00	–	5.19	5.14	4.80	6.71	< 4.00
OCCCCNc1cncc(-c2cncc(Nc3cccc(Cl)c3)n2)c1 [Cmd 32]	< 4.00	< 4.00	–	< 4.00	< 4.00	5.40	< 4.00
OCCCNc1cncc(-c2cncc(Nc3cccc(Cl)c3)n2)c1 [Cmd 4]	< 4.00	< 4.00	< 4.00	< 4.00	< 4.00	6.32	5.77
Clc1cccc(Nc2cncc(-c3cncc(NCCCn4cccn4)c3)n2)c1 [Cmd 75]	< 4.00	–	5.25	5.09	4.57	6.22	< 4.00
Clc1cccc(Nc2cncc(-c3cncc(NCCCc4ccncc4)c3)n2)c1 [Cmd 71]	< 4.00	–	< 4.00	< 4.00	5.31	6.80	< 4.00
Clc1cccc(Nc2cncc(-c3cncc(NCCCN4CCCCC4)c3)n2)c1 [Cmd 73]	< 4.00	5.76	5.30	5.20	5.12	6.31	< 4.00
Clc1cccc(Nc2cncc(-c3cncc(NCCCc4cccnc4)c3)n2)c1 [Cmd 72]	< 4.00	–	< 4.00	< 4.00	< 4.00	6.50	< 4.00
CN(C)CCNc1cncc(-c2cncc(Nc3cccc(Cl)c3)n2)c1 [Cmd 33, N′-[5-[6-[(3-chlorophenyl)amino]pyrazinyl]-3-pyridinyl]-N^2,N^2-dimethyl-1,2-ethanediamine]	< 4.00	< 4.00	< 4.00	< 4.00	< 4.00	4.94	< 4.00
CN(C)CCCNc1cncc(-c2cncc(Nc3cccc(Cl)c3)n2)c1 [Cmd 35]	< 4.00	< 4.00	< 4.00	< 4.00	< 4.00	5.09	< 4.00
